pEC50: −log10 of the molar value. Activity calls are given as the source filed them. The calls are words filed in the database; no cut-off is given here.
Columns and labels:
Type in all cases: cell-based
HEK293 = experiment: Selectivity ratio of EC50 for human GLP1R expressed in HEK293 cells to EC50 for human GLP2R expressed in HEK293
[1] = molecular target: T1, Glucagon-like peptide 2 receptor (Homo sapiens) (UniProt O95838); experiment: Potency index, ratio of compound EC50 to compound 2 EC50 for human GLP2R expressed in HEK293 cells
T1 sequence (whole entry): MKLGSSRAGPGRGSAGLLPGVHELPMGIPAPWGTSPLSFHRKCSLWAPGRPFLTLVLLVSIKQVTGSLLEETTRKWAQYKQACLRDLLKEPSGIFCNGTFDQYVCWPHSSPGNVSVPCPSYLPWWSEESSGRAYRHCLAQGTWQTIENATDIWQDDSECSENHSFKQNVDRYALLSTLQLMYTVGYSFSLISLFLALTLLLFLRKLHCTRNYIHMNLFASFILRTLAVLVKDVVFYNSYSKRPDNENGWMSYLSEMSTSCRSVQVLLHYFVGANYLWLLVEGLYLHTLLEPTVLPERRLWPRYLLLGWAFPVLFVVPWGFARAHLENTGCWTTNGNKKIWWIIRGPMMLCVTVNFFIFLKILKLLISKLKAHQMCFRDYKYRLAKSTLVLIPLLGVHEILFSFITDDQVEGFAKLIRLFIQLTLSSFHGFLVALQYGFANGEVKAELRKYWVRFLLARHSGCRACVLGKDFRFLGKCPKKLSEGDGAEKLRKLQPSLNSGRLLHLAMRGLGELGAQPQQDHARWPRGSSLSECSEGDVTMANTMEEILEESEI

[2] = molecular target: T2, Glucagon-like peptide 2 receptor (Homo sapiens, UniProt O95838); experiment: Agonist activity at human GLP2R expressed in HEK293 cells after 5 hrs by luciferase reporter gene assay
T2 sequence (O95838 whole entry): T1 sequence (whole entry)

[3] = molecular target: Glucagon-like peptide 1 receptor (Homo sapiens, UniProt P43220); experiment: Agonist activity at human GLP1R expressed in HEK293 cells after 5 hrs by luciferase reporter gene assay
Chain of Glucagon-like peptide 1 receptor (P43220 whole entry): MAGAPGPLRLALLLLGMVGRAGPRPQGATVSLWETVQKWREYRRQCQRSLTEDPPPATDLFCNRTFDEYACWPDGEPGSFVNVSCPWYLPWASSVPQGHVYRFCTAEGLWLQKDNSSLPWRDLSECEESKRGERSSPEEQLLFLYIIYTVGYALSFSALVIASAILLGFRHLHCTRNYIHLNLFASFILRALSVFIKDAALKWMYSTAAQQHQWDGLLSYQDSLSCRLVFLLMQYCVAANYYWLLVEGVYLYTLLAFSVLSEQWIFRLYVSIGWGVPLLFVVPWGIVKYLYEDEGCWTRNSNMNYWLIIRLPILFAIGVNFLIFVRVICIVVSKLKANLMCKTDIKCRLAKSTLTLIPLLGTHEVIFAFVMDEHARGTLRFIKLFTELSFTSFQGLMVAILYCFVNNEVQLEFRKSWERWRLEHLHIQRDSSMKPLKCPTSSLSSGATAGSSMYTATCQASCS

[4] = molecular target: Glucagon receptor (Homo sapiens) (UniProt P47871); experiment: Agonist activity at human GCGR expressed in HEK293 cells after 5 hrs by luciferase reporter gene assay
Chain of Glucagon receptor (Homo sapiens) (P47871 whole entry): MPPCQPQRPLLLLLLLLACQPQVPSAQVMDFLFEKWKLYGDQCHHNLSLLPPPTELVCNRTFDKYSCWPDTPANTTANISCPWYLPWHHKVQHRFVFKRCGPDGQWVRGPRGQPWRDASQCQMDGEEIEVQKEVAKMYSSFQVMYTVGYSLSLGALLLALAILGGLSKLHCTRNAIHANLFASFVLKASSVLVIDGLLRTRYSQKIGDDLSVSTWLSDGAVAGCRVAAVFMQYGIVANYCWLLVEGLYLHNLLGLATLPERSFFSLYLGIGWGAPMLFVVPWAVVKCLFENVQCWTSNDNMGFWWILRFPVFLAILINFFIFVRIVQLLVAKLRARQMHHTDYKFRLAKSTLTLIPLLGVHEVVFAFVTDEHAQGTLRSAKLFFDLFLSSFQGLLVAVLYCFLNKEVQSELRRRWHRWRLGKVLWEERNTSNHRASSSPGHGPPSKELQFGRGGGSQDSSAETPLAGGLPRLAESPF

Structure (SMILES) | Ratio EC50 [1] | pEC50 [2] | pEC50 [3] | Activity [4] | Ratio EC50 (HEK293)
CCCCC(NC(=O)[C@H](CCC(=O)O)NC(=O)[C@H](CC(=O)O)NC(=O)[C@H](CO)NC(=O)[C@H](Cc1ccccc1)NC(=O)[C@H](CO)NC(=O)CNC(=O)[C@H](CC(=O)O)NC(=O)CNC(=O)[C@@H](N)Cc1cnc[nH]1)C(=O)N[C@@H](CC(N)=O)C(=O)N[C@H](C(=O)N[C@H](C(=O)N[C@@H](CC(C)C)C(=O)N[C@@H](CC(=O)O)C(=O)N[C@@H](CC(N)=O)C(=O)N[C@@H](CC(C)C)C(=O)N[C@@H](C)C(=O)N[C@@H](C)C(=O)N[C@@H](CCCNC(=N)N)C(=O)N[C@@H](CC(=O)O)C(=O)N[C@@H](Cc1ccccc1)C(=O)N[C@H](C(=O)N[C@@H](CC(N)=O)C(=O)N[C@@H](Cc1c[nH]c2ccccc12)C(=O)N[C@@H](CC(C)C)C(=O)N[C@H](C(=O)N[C@@H](CCC(N)=O)C(=O)N[C@@H](C(=O)N[C@@H](CCCCN)C(N)=O)[C@H](C)O)[C@@H](C)CC)[C@@H](C)CC)[C@@H](C)CC)[C@@H](C)O (stereo not given in full) | 20 | 8.35 | < 6.00 | inactive | > 220
CCCCC(NC(=O)[C@H](CCC(=O)O)NC(=O)[C@H](CC(=O)O)NC(=O)[C@H](CO)NC(=O)[C@H](Cc1ccccc1)NC(=O)[C@H](CO)NC(=O)CNC(=O)[C@H](CC(=O)O)NC(=O)CNC(=O)[C@@H](N)Cc1cnc[nH]1)C(=O)N[C@@H](CC(N)=O)C(=O)N[C@@H](C(=O)N[C@H](C(=O)N[C@@H](CC(C)C)C(=O)N[C@@H](CC(=O)O)C(=O)N[C@@H](CC(N)=O)C(=O)N[C@@H](CC(C)C)C(=O)N[C@@H](C)C(=O)N[C@@H](C)C(=O)N[C@@H](CCCNC(=N)N)C(=O)N[C@@H](CC(=O)O)C(=O)N[C@@H](Cc1ccccc1)C(=O)N[C@H](C(=O)N[C@@H](CC(N)=O)C(=O)N[C@@H](Cc1c[nH]c2ccccc12)C(=O)N[C@@H](CC(C)C)C(=O)N[C@H](C(=O)N[C@@H](CCC(N)=O)C(=O)N[C@H](C(=O)N[C@@H](CCCCN)C(N)=O)[C@@H](C)O)[C@@H](C)CC)[C@@H](C)CC)[C@@H](C)CC)[C@H](C)O (stereo not given in full) | 6.8 | 8.82 | < 6.00 | inactive | > 660
CCCCC(NC(=O)[C@H](CCC(=O)O)NC(=O)[C@H](CC(=O)O)NC(=O)[C@H](CO)NC(=O)[C@H](Cc1ccccc1)NC(=O)[C@H](CO)NC(=O)CNC(=O)[C@H](CC(=O)O)NC(=O)CNC(=O)[C@@H](N)Cc1cnc[nH]1)C(=O)N[C@@H](CC(N)=O)C(=O)N[C@H](C(=O)N[C@H](C(=O)N[C@@H](CC(C)C)C(=O)N[C@@H](CC(=O)O)C(=O)N[C@@H](CC(N)=O)C(=O)N[C@H](CC(C)C)C(=O)N[C@@H](C)C(=O)N[C@@H](C)C(=O)N[C@@H](CCCNC(=N)N)C(=O)N[C@@H](CC(=O)O)C(=O)N[C@@H](Cc1ccccc1)C(=O)N[C@H](C(=O)N[C@@H](CC(N)=O)C(=O)N[C@@H](Cc1c[nH]c2ccccc12)C(=O)N[C@@H](CC(C)C)C(=O)N[C@H](C(=O)N[C@@H](CCC(N)=O)C(=O)N[C@H](C(=O)N[C@@H](CCCCN)C(N)=O)[C@@H](C)O)[C@@H](C)CC)[C@@H](C)CC)[C@@H](C)CC)[C@@H](C)O (stereo not given in full) | 12 | 8.59 | < 6.00 | inactive | > 380
CCCCC(NC(=O)[C@H](CCC(=O)O)NC(=O)[C@H](CC(=O)O)NC(=O)[C@H](CO)NC(=O)[C@H](Cc1ccccc1)NC(=O)[C@H](CO)NC(=O)CNC(=O)[C@H](CC(=O)O)NC(=O)CNC(=O)[C@@H](N)Cc1cnc[nH]1)C(=O)N[C@@H](CC(N)=O)C(=O)N[C@H](C(=O)N[C@H](C(=O)N[C@@H](CC(C)C)C(=O)N[C@@H](CC(=O)O)C(=O)N[C@@H](CC(N)=O)C(=O)N[C@@H](CC(C)C)C(=O)N[C@@H](C)C(=O)N[C@@H](C)C(=O)N[C@H](CCCNC(=N)N)C(=O)N[C@@H](CC(=O)O)C(=O)N[C@@H](Cc1ccccc1)C(=O)N[C@H](C(=O)N[C@@H](CC(N)=O)C(=O)N[C@@H](Cc1c[nH]c2ccccc12)C(=O)N[C@@H](CC(C)C)C(=O)N[C@H](C(=O)N[C@@H](CCC(N)=O)C(=O)N[C@H](C(=O)N[C@@H](CCCCN)C(N)=O)[C@@H](C)O)[C@@H](C)CC)[C@@H](C)CC)[C@@H](C)CC)[C@@H](C)O (stereo not given in full) | 10 | 8.66 | < 6.00 | inactive | > 450

More lines, main results first:

Ratio EC50 [1] | pEC50 [2] | pEC50 [3] | Activity [4] | Structure (SMILES) | Ratio EC50 (HEK293)
6.8 | 8.82 | < 6.00 | inactive | CCCCC(NC(=O)[C@H](CCC(=O)O)NC(=O)[C@H](CC(=O)O)NC(=O)[C@H](CO)NC(=O)[C@H](Cc1ccccc1)NC(=O)[C@H](CO)NC(=O)CNC(=O)[C@H](CC(=O)O)NC(=O)CNC(=O)[C@@H](N)Cc1cnc[nH]1)C(=O)N[C@@H](CC(N)=O)C(=O)N[C@H](C(=O)N[C@H](C(=O)N[C@@H](CC(C)C)C(=O)N[C@@H](CC(=O)O)C(=O)N[C@H](CC(N)=O)C(=O)N[C@@H](CC(C)C)C(=O)N[C@@H](C)C(=O)N[C@@H](C)C(=O)N[C@@H](CCCNC(=N)N)C(=O)N[C@@H](CC(=O)O)C(=O)N[C@@H](Cc1ccccc1)C(=O)N[C@H](C(=O)N[C@@H](CC(N)=O)C(=O)N[C@@H](Cc1c[nH]c2ccccc12)C(=O)N[C@@H](CC(C)C)C(=O)N[C@H](C(=O)N[C@@H](CCC(N)=O)C(=O)N[C@H](C(=O)N[C@@H](CCCCN)C(N)=O)[C@@H](C)O)[C@@H](C)CC)[C@@H](C)CC)[C@@H](C)CC)[C@@H](C)O (stereo not given in full) | > 660
0.73 | 9.80 | < 6.00 | inactive | CCCCC(NC(=O)[C@H](CCC(=O)O)NC(=O)[C@H](CC(=O)O)NC(=O)[C@H](CO)NC(=O)[C@H](Cc1ccccc1)NC(=O)[C@H](CO)NC(=O)CNC(=O)[C@H](CC(=O)O)NC(=O)CNC(=O)[C@@H](N)Cc1cnc[nH]1)C(=O)N[C@H](CC(N)=O)C(=O)N[C@H](C(=O)N[C@H](C(=O)N[C@@H](CC(C)C)C(=O)N[C@@H](CC(=O)O)C(=O)N[C@@H](CC(N)=O)C(=O)N[C@@H](CC(C)C)C(=O)N[C@@H](C)C(=O)N[C@@H](C)C(=O)N[C@@H](CCCNC(=N)N)C(=O)N[C@@H](CC(=O)O)C(=O)N[C@@H](Cc1ccccc1)C(=O)N[C@H](C(=O)N[C@@H](CC(N)=O)C(=O)N[C@@H](Cc1c[nH]c2ccccc12)C(=O)N[C@@H](CC(C)C)C(=O)N[C@H](C(=O)N[C@@H](CCC(N)=O)C(=O)N[C@H](C(=O)N[C@@H](CCCCN)C(N)=O)[C@@H](C)O)[C@@H](C)CC)[C@@H](C)CC)[C@@H](C)CC)[C@@H](C)O (stereo not given in full) | > 6200
2 | 9.37 | < 6.00 | inactive | CCCCC(NC(=O)[C@H](CCC(=O)O)NC(=O)[C@H](CC(=O)O)NC(=O)[C@H](CO)NC(=O)[C@H](Cc1ccccc1)NC(=O)[C@H](CO)NC(=O)CNC(=O)[C@H](CC(=O)O)NC(=O)CNC(=O)[C@@H](N)Cc1cnc[nH]1)C(=O)N[C@@H](CC(N)=O)C(=O)N[C@H](C(=O)N[C@H](C(=O)N[C@@H](CC(C)C)C(=O)N[C@@H](CC(=O)O)C(=O)N[C@@H](CC(N)=O)C(=O)N[C@@H](CC(C)C)C(=O)N[C@@H](C)C(=O)N[C@@H](C)C(=O)N[C@@H](CCCNC(=N)N)C(=O)N[C@@H](CC(=O)O)C(=O)N[C@@H](Cc1ccccc1)C(=O)N[C@H](C(=O)N[C@H](CC(N)=O)C(=O)N[C@@H](Cc1c[nH]c2ccccc12)C(=O)N[C@@H](CC(C)C)C(=O)N[C@H](C(=O)N[C@@H](CCC(N)=O)C(=O)N[C@H](C(=O)N[C@@H](CCCCN)C(N)=O)[C@@H](C)O)[C@@H](C)CC)[C@@H](C)CC)[C@@H](C)CC)[C@@H](C)O (stereo not given in full) | > 2300
2.1 | 9.33 | < 6.00 | inactive | CCCCC(NC(=O)[C@H](CCC(=O)O)NC(=O)[C@H](CC(=O)O)NC(=O)[C@H](CO)NC(=O)[C@H](Cc1ccccc1)NC(=O)[C@H](CO)NC(=O)CNC(=O)[C@H](CC(=O)O)NC(=O)CNC(=O)[C@@H](N)Cc1cnc[nH]1)C(=O)N[C@@H](CC(N)=O)C(=O)N[C@H](C(=O)N[C@H](C(=O)N[C@@H](CC(C)C)C(=O)N[C@@H](CC(=O)O)C(=O)N[C@@H](CC(N)=O)C(=O)N[C@@H](CC(C)C)C(=O)N[C@@H](C)C(=O)N[C@@H](C)C(=O)N[C@@H](CCCNC(=N)N)C(=O)N[C@H](CC(=O)O)C(=O)N[C@@H](Cc1ccccc1)C(=O)N[C@H](C(=O)N[C@@H](CC(N)=O)C(=O)N[C@@H](Cc1c[nH]c2ccccc12)C(=O)N[C@@H](CC(C)C)C(=O)N[C@H](C(=O)N[C@@H](CCC(N)=O)C(=O)N[C@H](C(=O)N[C@@H](CCCCN)C(N)=O)[C@@H](C)O)[C@@H](C)CC)[C@@H](C)CC)[C@@H](C)CC)[C@@H](C)O (stereo not given in full) | > 2100

Reference: ChEMBL document CHEMBL3822442, “Synthesis and Pharmacological Characterization of Novel Glucagon-like Peptide-2 (GLP-2) Analogues with Low Systemic Clearance” (J Med Chem, 2016)
